Data as given in patent publication US10662182B2, “Microbiocidal thiazole derivatives” (SYNGENTA PARTICIPATIONS AG, priority 2016, dated 2020).

Key:
[1] = tested on: Botrvotinia fuckeliana (Botrvtis cinerea); experiment: Botryotinia fuckeliana / liquid culture (gray mould); format: cell-based; conditions: Botrytis cinerea, 200 ppm in the formulation, inhibition of growth determined photometrically, compared to untreated checks, read-out: disease control
Method: (§1) Botrvotinia fuckeliana (Botrvtis cinerea)/Liquid Culture (Gray Mould) Conidia of the fungus from cryogenic storage are directly mixed into nutrient broth (Vogels broth). After placing a (DMSO) solution of test compound into a microtiter plate (96-well format), the nutrient broth containing the fungal spores is added. The test plates are incubated at 24° C. and the inhibition of growth is determined photometrically 3-4 days after application.

[2] = tested on: Monocraphella nivalis (Microdochium nivale); experiment: Monographella nivalis / liquid culture (foot rot cereals); format: cell-based; conditions: 200 ppm in the formulation, inhibition of growth determined photometrically, compared to untreated checks, read-out: disease control
Method: as §1, with “Monocraphella nivalis (Microdochium nivale)/Liquid” for “Botrvotinia fuckeliana (Botrvtis cinerea)/Liquid”, “(Foot Rot Cereals)” for “(Gray Mould)”, “(PDB potato dextrose” for “(Vogels”, “4-5” for “3-4”

Gaeumannomyces graminis = Gaeumannomyces graminis / liquid culture (take-all of cereals); format: cell-based; conditions: 200 ppm in the formulation, inhibition of growth determined photometrically, compared to untreated control, read-out: disease control
Method: (§2) Gaeumannomyces graminis/Liquid Culture (Take-All of Cereals) Mycelial fragments of the fungus from cryogenic storage were directly mixed into nutrient broth (PDB potato dextrose broth). After placing a (DMSO) solution of test compound into a microtiter plate (96-well format), the nutrient broth containing the fungal spores is added. The test plates are incubated at 24° C. and the inhibition of growth is determined photometrically 4-5 days after application.

[3] = tested on: Blumeria graminis f. Sp. Tritici (Erysiphe graminis f. Sp. Tritici); experiment: Blumeria graminis f. sp. tritici / wheat / leaf disc preventative (powdery mildew on wheat); format: in vivo; conditions: foliar, 200 ppm in the formulation, wheat leaf segments cv. Kanzler, compared to untreated checks, read-out: disease control
Description: Blumeria graminis f. Sp. Tritici (Erysiphe graminis f. Sp. Tritici)/Wheat/Leaf Disc Preventative (Powdery Mildew on Wheat) Wheat leaf segments cv. Kanzler are placed on agar in a multiwell plate (24-well format) and sprayed with the test compound formulated with DMSO and Tween20 and diluted in water. The leaf disks are inoculated by shaking powdery mildew infected plants above the test plates 1 day after application.

[4] = tested on: Mycosphaerella arachidis (Cercospora arachidicola); experiment: Mycosphaerella arachidis / liquid culture (early leaf spot); format: cell-based; conditions: 200 ppm in the formulation, inhibition of growth determined photometrically, compared to untreated checks, read-out: disease control
Method: as §2, with “Mycosphaerella arachidis (Cercospora arachidicola)/Liquid” for “Gaeumannomyces graminis/Liquid”, “(Early Leaf Spot) Conidia” for “(Take-All of Cereals) Mycelial fragments”, “are” for “were”

[5] = tested on: Puccinia recondita f. Sp. Tritici; experiment: Puccinia recondita f. sp. tritici / wheat / leaf disc preventative (brown rust); format: in vivo; conditions: foliar, 200 ppm in the formulation, wheat leaf segments cv. Kanzler, compared to untreated checks, read-out: disease control
Pyrenophora teres = Pyrenophora teres / barley / leaf disc preventative (net blotch); format: in vivo; conditions: foliar, 200 ppm of the formulation, barley leaf segments cv. Hasso, compared to untreated checks, read-out: disease control
Method: Pyrenophora teres/Barley/Leaf Disc Preventative (Net Blotch) Barley leaf segments cv. Hasso are placed on agar in a multiwell plate (24-well format) and sprayed with the test compound formulated with DMSO and Tween20 and diluted in water. The leaf segments are inoculated with a spore suspension of the fungus 2 days after application. The inoculated leaf segments are incubated at 20° C. and 65% rh under a light regime of 12 h light/12 h darkness in a climate cabinet and the activity of a compound is assessed as disease control compared to untreated when an appropriate level of disease damage appears in untreated check leaf segments (5 to 7 days after application).

[6] = tested on: Mycosphaerella raminicola (Septoria tritici); experiment: Mycosphaerella graminicola / liquid culture (Septoria blotch); format: cell-based; conditions: 200 ppm in the formulation, inhibition of growth determined photometrically, compared to untreated checks, read-out: disease control
Method: as §2, with “Mycosphaerella raminicola (Septoria tritici)/Liquid” for “Gaeumannomyces graminis/Liquid”, “(Septoria blotch) Conidia” for “(Take-All of Cereals) Mycelial fragments”, “are” for “were”, “4 to 5” for “4-5”

[7] = tested on: Glomerella lacenarium (Colletotrichum lacenarium); experiment: Glomerella lagenarium / liquid culture (anthracnose); format: cell-based; conditions: 200 ppm in the formulation, inhibition of growth measured photometrically, compared to untreated checks, read-out: disease control
Method: as §2, with “Glomerella lacenarium (Colletotrichum lacenarium)/Liquid” for “Gaeumannomyces graminis/Liquid”, “(Anthracnose) Conidia” for “(Take-All of Cereals) Mycelial fragments”, “are” for “were”, “measured” for “determined”, “3 to 4” for “4-5”

[8] = tested on: Magnaporthe risea (Pyricularia oryzae); experiment: whole plant or invertebrate; format: in vivo; conditions: foliar, read-out: disease control

SMILES	inhibition of growth at 200 ppm [1] [%]	inhibition of growth at 200 ppm [2] [%]	inhibition of growth at 200 ppm (Gaeumannomyces graminis) [%]	pest or weed control at 200 ppm [3] [%]	inhibition of growth at 200 ppm [4] [%]	pest or weed control at 200 ppm [5] [%]	pest or weed control at 200 µg/mL (Pyrenophora teres) [%]	inhibition of growth at 200 ppm [6] [%]	inhibition of growth at 200 ppm [7] [%]	pest or weed control at 200 ppm [8] [%]	melting point [°C]
CC(NC(=O)c1nc(Nc2cc(F)cc(F)c2)sc1Br)C1CCCCC1 (stereo not shown) [Compound I.e.2, 5-bromo-N-(1-cyclohexylethyl)-2-(3,5-difluoroanilino)thiazole-4-carboxamide]	≥ 80	≥ 80	≥ 80	≥ 80	≥ 80	≥ 80	≥ 80	≥ 80	≥ 80		
Cc1sc(Nc2cc(F)cc(F)c2)nc1C(=O)NC(C)(C#N)C(C)C (stereo not shown) [Compound I.n.3, N-(1-cyano-1,2-dimethyl-propyl)-2-(3,5-difluoroanilino)-5-methyl-thiazole-4-carboxamide]	≥ 80	≥ 80	≥ 80	≥ 80	≥ 80	≥ 80		≥ 80	≥ 80	≥ 80	
CC12CCCC(NC(=O)c3nc(Nc4cc(F)cc(F)c4)sc3Br)C1CC2 (stereo not shown) [I.ah.2, 5-bromo-2-(3,5-difluoroanilino)-N-(6-methyl-2-bicyclo[4.2.0]octanyl)thiazole-4-carboxamide]	≥ 80	≥ 80	≥ 80	≥ 80		≥ 80		≥ 80	≥ 80	≥ 80	
Cc1sc(Nc2cc(F)cc(F)c2)nc1C(=O)NC1CCCC2(C)CCC12 (stereo not shown) [I.ah.3, 2-(3,5-difluoroanilino)-5-methyl-N-(6-methyl-2-bicyclo[4.2.0]octanyl)thiazole-4-carboxamide]	≥ 80	≥ 80	≥ 80		≥ 80			≥ 80	≥ 80		
Cc1sc(Nc2cc(F)cc(F)c2)nc1C(=O)NC1CC12CC2 (stereo not shown) [I.bb.3, 2-(3,5-difluoroanilino)-5-methyl-N-spiro[2.2]pentan-2-yl-thiazole-4-carboxamide]		≥ 80		≥ 80	≥ 80	≥ 80		≥ 80	≥ 80	≥ 80	145 to 175
Cc1sc(Nc2cc(F)nc(F)c2)nc1C(=O)NC1CC12CC2 (stereo not shown) [I.bb.43, 2-[(2,6-difluoro-4-pyridyl)amino]-5-methyl-N-spiro[2.2]pentan-2-yl-thiazole-4-carboxamide]		≥ 80		≥ 80	≥ 80	≥ 80	≥ 80	≥ 80	≥ 80	≥ 80	129 to 158
Cc1sc(Nc2cc(F)cc(F)c2)nc1C(=O)NC(C)C1CCCCC1 (stereo not shown) [I.e.3, N-(1-cyclohexylethyl)-2-(3,5-difluoroanilino)-5-methyl-thiazole-4-carboxamide]		≥ 80	≥ 80	≥ 80	≥ 80	≥ 80	≥ 80	≥ 80	≥ 80	≥ 80	
O=C(NC1CCC12CCC2)c1nc(Nc2cc(F)cc(F)c2)sc1Br (stereo not shown) [I.r.2, 5-bromo-2-(3,5-difluoroanilino)-N-spiro[3.3]heptan-7-yl-thiazole-4-carboxamide]	≥ 80	≥ 80	≥ 80	≥ 80	≥ 80	≥ 80	≥ 80	≥ 80	≥ 80	≥ 80	
Cc1sc(Nc2cc(F)cc(F)c2)nc1C(=O)NC1CCC12CCC2 (stereo not shown) [I.r.3, 2-(3,5-difluoroanilino)-5-methyl-N-spiro[3.3]heptan-7-yl-thiazole-4-carboxamide]	≥ 80	≥ 80	≥ 80	≥ 80	≥ 80	≥ 80	≥ 80	≥ 80	≥ 80	≥ 80	
Cc1sc(Nc2cc(F)cc(F)c2)nc1C(=O)NC1CCC12CCCC2 (stereo not shown) [I.s.3, 2-(3,5-difluoroanilino)-5-methyl-N-spiro[3.4]octan-3-yl-thiazole-4-carboxamide]		≥ 80	≥ 80	≥ 80	≥ 80	≥ 80	≥ 80	≥ 80	≥ 80	≥ 80	
Cc1sc(Nc2cc(F)nc(F)c2)nc1C(=O)NC1CCC12CCCC2 (stereo not shown) [I.s.43, 2-[(2,6-difluoro-4-pyridyl)amino]-5-methyl-N-spiro[3.4]octan-3-yl-thiazole-4-carboxamide]	≥ 80	≥ 80		≥ 80	≥ 80	≥ 80	≥ 80	≥ 80	≥ 80	≥ 80	156 to 162
CC1(C)C2CCCC2C1NC(=O)c1nc(Nc2cc(F)cc(F)c2)sc1Br (stereo not shown) [I.y.2, 5-bromo-2-(3,5-difluoroanilino)-N-(6,6-dimethyl-7-bicyclo[3.2.0]heptanyl)thiazole-4-carboxamide]	≥ 80	≥ 80	≥ 80	≥ 80	≥ 80	≥ 80	≥ 80	≥ 80	≥ 80	≥ 80	
Cc1sc(Nc2cc(F)cc(F)c2)nc1C(=O)NC1C2CCCC2C1(C)C (stereo not shown) [I.y.3, 2-(3,5-difluoroanilino)-N-(6,6-dimethyl-7-bicyclo[3.2.0]heptanyl)-5-methyl-thiazole-4-carboxamide]		≥ 80	≥ 80	≥ 80	≥ 80	≥ 80		≥ 80	≥ 80	≥ 80	
